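The compound was tested at five concentrations on cells cultured in 96-well plates, with a 48-hour exposure period. Here, GI50 denotes the concentration required for 50% inhibition of growth. TGI: concentration producing complete growth inhibition.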
Columns and labels:
Assay in all cases: NCI tumour cell line growth inhibition, 48 h
DMS 273 small cell lung = tested on: DMS 273 small cell lung
SF-295 CNS = tested on: SF-295 CNS
HCT-116 colon = tested on: HCT-116 colon
CCRF-CEM leukemia = tested on: CCRF-CEM leukemia
SN12C renal = tested on: SN12C renal
SNB-78 CNS = tested on: SNB-78 CNS
LXFL 529 NSCLC = tested on: LXFL 529 NSCLC
KM20L2 colon = tested on: KM20L2 colon
T-47D breast = tested on: T-47D breast
MDA-MB-231 breast = tested on: MDA-MB-231 breast
MDA-MB-435 = tested on: MDA-MB-435
DU-145 prostate = tested on: DU-145 prostate

Compound	TGI (DMS 273 small cell lung)	TGI (SF-295 CNS)	TGI (HCT-116 colon)	TGI (CCRF-CEM leukemia)	TGI (SN12C renal)	TGI (SNB-78 CNS)	TGI (LXFL 529 NSCLC)	TGI (KM20L2 colon)	GI50 (SF-295 CNS)	GI50 (HCT-116 colon)	TGI (T-47D breast)	TGI (MDA-MB-231 breast)	GI50 (MDA-MB-435)	TGI (MDA-MB-435)	TGI (DU-145 prostate)	GI50 (CCRF-CEM leukemia)	GI50 (T-47D breast)	GI50 (SN12C renal)	GI50 (MDA-MB-231 breast)	GI50 (DU-145 prostate)
CCOc1cc[n+](C(=C=[N-])C#N)cc1	> 100 µM	> 100 µM	> 100 µM	> 100 µM	> 100 µM	> 100 µM	> 100 µM	> 100 µM												
OCC(O)C(OC1OC(CO)C(O)C(O)C1O)c1nn(-c2ccc(Cl)cc2)c2nc3cc(Cl)ccc3nc12 (configuration not stated)		> 100 µM	> 100 µM	> 100 µM	> 100 µM	> 100 µM	> 100 µM	> 100 µM												
C(=NCCN=Cc1cccc2ccccc12)c1cccc2ccccc12	> 100 µM	> 100 µM	> 100 µM		> 100 µM	> 100 µM	> 100 µM	> 100 µM												
O=C1OC(=O)C2C1C1C(c3ccccc3)=C(c3ccccc3)C2(O)C2C(=O)OC(=O)C12 (configuration not stated)		> 100 µM	> 100 µM	> 100 µM	> 100 µM	> 100 µM	> 100 µM	> 100 µM												
O=S1Cc2ccccc2CSS1 (configuration not stated)	24.1 µM	37.9 µM	28.3 µM		29.4 µM	62 µM	27.2 µM	41.9 µM												
Cc1c(C(=O)Nc2ccc(Cl)cc2)nc(N)nc1-c1cccc(Cl)c1	> 100 µM	> 100 µM	> 100 µM	> 100 µM	> 100 µM	> 100 µM		> 100 µM												
CCC12C=CCN3CCC4(C(=C(C(=O)OC)C1)Nc1ccccc14)[C@H]32 (some centres not stated)	42.8 µM	92.6 µM	> 100 µM	79.5 µM			> 100 µM	47.6 µM												
Nc1ncnc2c1ncn2COC/C=C/I	> 100 µM	> 100 µM	> 100 µM	> 100 µM	> 100 µM	> 100 µM	> 100 µM													
COc1ccc(S(=O)(=O)N/N=C/CN2C(=O)c3ccccc3C2=O)cc1	> 100 µM	> 100 µM		> 100 µM	> 100 µM		> 100 µM	> 100 µM												
CCCCCC/C(CC(=O)CCC(=O)NCCc1ccccc1)=N\NC(=O)c1ccc2ccccc2c1O		> 100 µM	> 100 µM	47.4 µM	> 100 µM	> 100 µM	> 100 µM	> 100 µM												
ClCCCN1CCCCC1CCl (configuration not stated)	> 100 µM	> 100 µM	> 100 µM	> 100 µM	> 100 µM		> 100 µM	> 100 µM												
COc1ccc(-c2cc(=O)c3cccnc3[nH]2)cc1		> 100 µM	80.3 µM	85.6 µM	> 100 µM				65 µM	17.6 µM	> 100 µM	> 100 µM	20 µM	91.6 µM	> 100 µM					
Nc1cc(N)c2nc(-c3ccccc3)c(Oc3ccc(Cl)c(Cl)c3)nc2c1		31 µM	48.3 µM	> 100 µM	31.4 µM				13.9 µM	15.7 µM	79.1 µM	26.2 µM	5.03 µM	21.1 µM	27.1 µM	2.98 µM	24.5 µM	14.5 µM	10.3 µM	
COC(=O)CCc1c(/C=C2\N=C(c3ccc[nH]3)C=C2OC)[nH]c(C)c1C(=O)OCc1ccccc1		1.73 µM	1.07 µM	> 58 µM	2.5 µM				0.384 µM	0.122 µM	1.45 µM	1.57 µM	0.409 µM	2.25 µM	> 55.6 µM	0.0933 µM	0.235 µM	0.442 µM	0.17 µM	0.345 µM
NC(C(=O)O)c1ccc(C(=O)O)cc1 (configuration not stated)		> 100 µM		> 100 µM	> 100 µM	> 100 µM	> 100 µM	> 100 µM												
C[C@H](CCCOS(C)(=O)=O)[C@H]1CC[C@H]2[C@@H]3CC[C@@H]4C[C@H](OS(C)(=O)=O)CC[C@]4(C)[C@H]3CC[C@]12C		1340 µM	1240 µM	> 2500 µM					532 µM	532 µM	> 2500 µM		1140 µM			> 2500 µM	1040 µM	799 µM	503 µM	1160 µM
CCN(CC)c1ccc(N=C2C=CC(=C(C#N)C#N)c3ccccc32)c(C)c1	6.51 µM	5.66 µM	5.8 µM	6.1 µM	7.86 µM	6.42 µM		6.75 µM												
CNCC1CCn2c(c(C3=C(c4cn(C)c5ccccc45)C(=O)NC3=O)c3ccccc32)C1 (configuration not stated)		6.38 µM	5.56 µM	12 µM	9.28 µM				2.49 µM	1.82 µM	7.27 µM	7.27 µM	2.75 µM	5.94 µM	8.6 µM	2.89 µM	3.27 µM	2.87 µM	2.54 µM	3.76 µM
NCCNc1ncnc2ccc(Cl)cc12		> 100 µM	> 100 µM	> 100 µM	> 100 µM						> 100 µM	> 100 µM		> 100 µM	> 100 µM					

— PubChem BioAssay (NCI)
